Test results reported in patent publication US9360486B2, “Allergen fragments” (Biomay AG, priority 2007, dated 2016).

System: Amb a 1-specific T cell lines (TCL)
Test: T cell epitope mapping of Amb a 1.3: proliferation (3H-thymidine uptake) of TCL stimulated with synthetic peptides
Assay type: cell-based, human
Details: for No. positive patients SI > 3 / No. positive patients SI > 5 / % (positive patients SI > 3) / % (positive patients SI > 5): TCL from 48 ragweed pollen-allergic patients, peptide 5 μg/ml; for No. positive patients SI > 3 / No. positive patients SI > 5: 3H-thymidine uptake after 48 hrs; for No. positive patients SI > 3 / % (positive patients SI > 3): stimulation index > 3; for No. positive patients SI > 5 / % (positive patients SI > 5): stimulation index > 5; for T cell activating region recognized by % of patients: classes of prevalence referring to SI>5, 48 TCL
Summary of the method: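 Amb a 1-specific TCL from ragweed-allergic patients, raised with ragweed extract or rAmb a 1.3, stimulated 48 h with 121 overlapping 12-mer peptides plus one C-terminal 13-mer (9-residue overlap) at 5 μg/ml. Proliferation by 3H-thymidine uptake; SI against the mean cpm of the ten least stimulating peptides, epitope when SI ≥3.0.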

| Sequence | reactivity with T cells isolated from allergic individuals | No. positive patients SI > 3 | No. positive patients SI > 5 | % (positive patients SI > 3) [%] | % (positive patients SI > 5) [%] | T cell activating region recognized by % of patients | T cell reactivity with samples from individuals suffering from ragweed pollen allergy |
| --- | --- | --- | --- | --- | --- | --- | --- |
| SDKTIDGRGVKV (Amb a 1 fragment) [Peptide 38] | reactivity with T cells | 13 | 11 | 27.1 | 22.9 |  |  |
| SDKTIDGRGVKVEIINGG (Amb a 1 fragment) [Peptide 38-40] | reactivity with T cells |  |  |  |  | recognized by 33.3% |  |
| SDPVLTPVQSAG (Amb a 1 fragment) [Peptide 112] | reactivity with T cells | 7 | 3 | 14.6 | 6.3 |  |  |
| SKAILLGADDTH (Amb a 1 fragment) [Peptide 73] |  | 4 | 2 | 8.3 | 4.2 |  |  |
| SKSFDGLVDVTL (Amb a 1 fragment) [Peptide 64] |  | 3 | 1 | 6.3 | 2.1 |  |  |
| SSAPTILCQGNR (Amb a 1 fragment) [Peptide 93] | reactivity with T cells | 6 | 4 | 12.5 | 8.3 |  |  |
| TDNVDQRMPRCR (Amb a 1 fragment) [Peptide 82] |  | 3 | 2 | 6.3 | 4.2 |  |  |
| TGTGAAESMAWN (Amb a 1 fragment) [Peptide 102] | reactivity with T cells | 9 | 6 | 18.8 | 12.5 |  |  |
| TIDGRGVKVEII (Amb a 1 fragment) [Peptide 39] | reactivity with T cells | 19 | 16 | 39.6 | 33.3 |  |  |
| TQQSKAILLGAD (Amb a 1 fragment) [Peptide 72] |  | 4 | 2 | 8.3 | 4.2 |  |  |
| TSGSDPVLTPVQ (Amb a 1 fragment) [Peptide 111] | reactivity with T cells | 16 | 11 | 33.3 | 22.9 |  |  |
| TSNLDDDVANPK (Amb a 1 fragment) [Peptide 23] |  | 2 | 1 | 4.2 | 2.1 |  |  |
| TYAIGGSSAPTI (Amb a 1 fragment) [Peptide 91] | reactivity with T cells | 13 | 11 | 27.1 | 22.9 | recognized by 22.9% | high T cell reactivity |
| TYGGKWGDVYTV (Amb a 1 fragment) [Peptide 19] |  | 2 | 0 | 4.2 | 0.0 |  |  |
| VAFNMFTDNVDQ (Amb a 1 fragment) [Peptide 80] | reactivity with T cells | 10 | 6 | 20.8 | 12.5 |  |  |
| VAFNMFTDNVDQRMP (Amb a 1 fragment) [Peptide 80-81] | reactivity with T cells |  |  |  |  | recognized by 12.5% |  |
| VDQRMPRCRFGF (Amb a 1 fragment) [Peptide 83] | reactivity with T cells | 10 | 8 | 20.8 | 16.7 | recognized by 16.7% |  |
| VKVEIINGGLTL (Amb a 1 fragment) [Peptide 41] | reactivity with T cells | 5 | 1 | 10.4 | 2.1 |  |  |
| VKVLPGGMIKSN (Amb a 1 fragment) [Peptide 50] | reactivity with T cells | 5 | 4 | 10.4 | 8.3 |  |  |
| VLTPVQSAGMIP (Amb a 1 fragment) [Peptide 113] |  | 4 | 1 | 8.3 | 2.1 |  |  |
| VNNNYDRWGTYA (Amb a 1 fragment) [Peptide 88] | reactivity with T cells | 10 | 4 | 20.8 | 8.3 |  |  |
| VNNNYDRWGTYAIGG (Amb a 1 fragment) [Peptide 88-89] | reactivity with T cells |  |  |  |  | recognized by 12.5% |  |
| VQDKGMLATVAF (Amb a 1 fragment) [Peptide 77] | reactivity with T cells | 7 | 4 | 14.6 | 8.3 |  |  |
| VTLGSTHVTISN (Amb a 1 fragment) [Peptide 67] | reactivity with T cells | 6 | 2 | 12.5 | 4.2 |  |  |
| VVNSDKTIDGRG (Amb a 1 fragment) [Peptide 37] | reactivity with T cells | 14 | 9 | 29.2 | 18.8 |  |  |
| WENNRQALADCA (Amb a 1 fragment) [Peptide 13] |  | 2 | 0 | 4.2 | 0.0 |  |  |
| WRGKADWENNRQ (Amb a 1 fragment) [Peptide 11] |  | 4 | 2 | 8.3 | 4.2 |  |  |
| WRSDKDLLENGA (Amb a 1 fragment) [Peptide 106] |  | 3 | 1 | 6.3 | 2.1 |  |  |
| YTVTSNLDDDVA (Amb a 1 fragment) [Peptide 22] |  | 4 | 4 | 8.3 | 8.3 |  |  |
